Experimental findings from patent US10201558B2, “Compositions of selenoorganic compounds and methods of use thereof” (Alltech, Inc., priority 2014, dated 2019) are described below.

The test system of assay [1] is Insulin Degrading Enzyme (IDE). The assay can be described thus: Western blot of insulin degrading enzyme in APP/PS1 mouse brains. Format: in vivo. The settings on record: APP/PS1 mice, Compound C diet vs control diet. As to the method: Male APPΔNLh/ΔNLh×PS1P246 L/246 L knock-in model mice of Alzheimer's disease (abbreviated APP/PS1) were genotyped using standard primers for human APP (Amyloid Precursor Protein) and human PS1 (PSEN1). These APP/PS1 mice starting at the age of 6 months, were fed either a control diet containing normal levels of selenium (0.3 ppm from plant and inorganic selenium salt sources) or an experimental diet containing Compound C (the control diet to which was added 1 ppm Se from Compound C) for 6 months. […]
(§1) Frozen hemispheres of control- and Compound C-treated APP/PS1 mice were weighed and homogenized in PBS buffer, and then subsequently extracted with RIPA buffer (Sigma) containing complete proteinase and phosphatase inhibitors (Fisher Scientific). Protein levels in the samples were determined by micro-BCA protein analysis according to the manufacturer's protocol. […] Positive signals on the membrane blots were detected using Amersham's enhanced chemiluminescence Western Blotting Prime Detection reagents (GE healthcare Lifescience, Pittsburgh, Pa.). Images of these luminescence signals on the membrane blots were captured using the LI-COR Odyssey Fc Image system (Lincoln, Nebr.). Protein band densities in Western blots were determined using NIH Image J software, and then normalized by Actb levels in each samples to obtain the protein levels.

Assay [2] relates to phosphorylated Foxo3 (threonine 32). The assay can be described thus: Western blot of phosphorylated Foxo3 in APP/PS1 mouse brains. Format: in vivo. The settings on record: APP/PS1 mouse brain, Compound C diet vs control diet. As for the experimental part:
Male APPΔNLh/ΔNLh×PS1P246 L/246 L knock-in model mice of Alzheimer's disease (abbreviated APP/PS1) were genotyped using standard primers for human APP (Amyloid Precursor Protein) and human PS1 (PSEN1).
At 12 months of age, the mice were euthanized and the brains quickly removed, the cerebellum isolated and the hemispheres snap-frozen in liquid nitrogen and then stored at −80° C. for further immunohistochemistry (IHC), protein and RNA analysis. All procedures conducted on these animal studies were pre-approved by the University of Kentucky IACUC committee.
as §1, with “Protein band densities in Western blots were determined using NIH Image J software, and then normalized by Actb levels in each samples to obtain the protein levels.” left out
A general note: Immunoblotting shows a protein as a band on a membrane.

The test system of a further assay is APOE. As to the kind of experiment: QRT-PCR of APOE mRNA in IMR-32 cells (normal, control KD, FOXO4 KD). Format: cell-based, human. The settings on record: 24 hours. As to the method: IMR-32 cells were cultured on 12-well plates for 24 hours and then incubated with FOXO4 siRNA lentiviruses (SC-29650V, Santa Cruz) or control siRNA lentiviruses (sc-108080, Santa Cruz) in the presence of Polybrene (5 μg/ml, Santa Cruz) for 24 hours according to the manufacturer's protocol. These lentiviral siRNA-transfected cells were amplified in normal media for 3 days and then incubated with puromycin for 9-14 days to obtain the stable Control KD (stably transfected with the control siRNAs) and FOXO4KD (stably transfected with Foxo4 siRNAs) cells. These control and Foxo4 KD cells were subjected to cell survival, mitochondrial potential and RNA analysis.
Human IMR-32 cells were seeded on gelatinized 6-well (6.5×10^5 cells/well) or 24-well (1.3×10^5 cells/well) plates. Cells were treated with control (0 ppb) or various compounds for 6 hours or 24 hours. Total RNA from these cells was isolated using Trizol (Invitrogen) according to the manufacturer's protocol, and then incubated with DNase I to remove any potential contaminated genomic DNA. Then RNA samples were subjected to real-time PCR analysis using the Applied-Bioscience's RT kit and predesigned Taqman probes (Invitrogen), as described previously (Lan et al EMBO J 2003). The mRNA levels of UCP1, UCP2, UCP3, SLC25A27 (UCP4), SLC25A14 (UCP5), PSEN1, Nicastrin, GSK3B, MAPK11-14, PPARG, APOE, RCAN1, RCAN1.1, G6PC, INSR, IGF1R and FOXO4 were measured. Three to six samples were analyzed in each treatment group. Data were normalized by Actin B (ACTB) or Glyceraldehyde Phosphate Dehydrogenase (GAPDH) mRNA levels in each sample and are presented as mean±SEM of 3-6 samples.
To explore this possibility, IMR-32 cells were treated with 150 ppb Compound C, Compound D or Compound E (150 ppb) for 6 hours and 24 hours, and then subjected to Western blot and QRT-PCR analyses. […] Therefore, Compound C and Compound D are downregulators of PPARG in IMR-32 cells at both mRNA and protein levels. […]

“Also recorded” adds a separate entry of the source.

`C[Se]C[C@H]1O[C@@H](n2cnc3c(N)ncnc32)C(O)C1O` (stereo in doubt) [Compound C, 5′-deoxy-5′-methylselenoadenosine]: the “IDE protein levels in the brains” value in assay [1] is listed as “increased; also recorded: elevated”. In addition, the “phosphorylated Foxo3 at threonine 32 (pFoxo3) protein” value in assay [2] is “inhibition; also recorded: less abundant; also recorded: significant decrease”. The “APOE mRNA expression” value with APOE (FOXO4KD cells, 75 ppb and 150 ppb) is listed as “not significantly altered”. Moreover, the “APOE mRNA levels” value is given as “significantly decreased” in the assay with APOE (IMR-32 cells, 150 ppb); “attenuated” in the assay with APOE (control normal cells, 75 ppb and 150 ppb).
